# Measured values as given in ChEMBL document CHEMBL1201862, “PubChem BioAssay data set” (2004).
# Structures can show the parent of a compound that is named as a salt. Active and inactive are the calls of the source.
# How the values were obtained:
# [1] = target: T1, Ubiquitin-conjugating enzyme E2 N (Homo sapiens, UniProt P61088); type: functional;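 also: Dose-response confirmation in a TR-FRET assay detecting UBC13-driven polyubiquitin chain formation, inhibition measured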
# T1 sequence (P61088 whole entry): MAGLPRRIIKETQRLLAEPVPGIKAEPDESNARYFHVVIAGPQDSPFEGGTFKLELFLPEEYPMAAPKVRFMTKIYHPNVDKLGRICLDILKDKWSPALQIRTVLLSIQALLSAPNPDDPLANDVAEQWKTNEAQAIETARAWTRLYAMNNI
# [2] = target: T2, Fatty acid synthase (Homo sapiens, UniProt P49327); assay: FAS thioesterase domain inhibitors, dose response, biochemical, endpoint fluorescence intensity, uHTS hits (AID 624327); type: functional;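 also: fluorescence from hydrolysis of an O-methyl fluorescein acyl ester substrate by the enzyme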
# [3] = target: T2, Fatty acid synthase; assay: FAS thioesterase domain inhibitors, dose response, biochemical, kinetic fluorescence intensity (AID 624326); type: functional;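 also: rate of fluorescence rise from hydrolysis of a fluorogenic O-methyl fluorescein ester substrate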
# [4] = target: T3, Mannose-6-phosphate isomerase (Homo sapiens, UniProt P34949); assay: human PMI inhibitors, high substrate, primary screen, biochemical, fluorescence intensity, high mannose 6-phosphate (AID 1220)
# T3 sequence (P34949 whole entry): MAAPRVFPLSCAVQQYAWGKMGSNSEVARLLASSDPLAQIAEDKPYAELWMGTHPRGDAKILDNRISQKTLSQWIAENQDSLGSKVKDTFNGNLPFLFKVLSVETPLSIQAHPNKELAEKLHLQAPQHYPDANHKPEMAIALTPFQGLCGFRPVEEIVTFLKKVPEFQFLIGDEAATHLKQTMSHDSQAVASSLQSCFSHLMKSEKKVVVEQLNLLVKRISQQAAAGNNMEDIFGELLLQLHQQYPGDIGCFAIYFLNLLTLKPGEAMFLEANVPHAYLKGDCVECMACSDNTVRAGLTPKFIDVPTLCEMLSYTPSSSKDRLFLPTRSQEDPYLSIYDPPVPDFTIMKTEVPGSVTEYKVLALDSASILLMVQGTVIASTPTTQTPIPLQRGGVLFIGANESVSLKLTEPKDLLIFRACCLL
# [5] = target: T4, RNA-binding protein pos-1 (Caenorhabditis elegans, UniProt G5EF15); assay: inhibitors of POS-1/mex-3 RNA binding, dose response, biochemical, fluorescence polarization (AID 1964);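 also: purified POS-1 fused to maltose binding protein made in E. coli; potency of compounds blocking POS-1 binding to fluorescent RNA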
# T4 sequence (G5EF15 whole entry): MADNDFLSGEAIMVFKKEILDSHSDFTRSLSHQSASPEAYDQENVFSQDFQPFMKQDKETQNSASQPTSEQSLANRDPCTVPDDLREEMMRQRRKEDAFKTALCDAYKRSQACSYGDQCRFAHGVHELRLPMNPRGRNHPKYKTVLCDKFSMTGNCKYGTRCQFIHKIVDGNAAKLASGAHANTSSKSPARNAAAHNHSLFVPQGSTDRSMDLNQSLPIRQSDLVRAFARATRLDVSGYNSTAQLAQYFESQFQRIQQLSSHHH
# [6] = target: T5, Carboxy-terminal domain RNA polymerase II polypeptide A small phosphatase 1 (Homo sapiens, UniProt Q9GZU7); assay: inhibitors of CTDSP1, concentration-response testing, biochemical assay, absorbance-based, actives from ultra-high-throughput screening (AID 540297); type: functional
# T5 sequence (Q9GZU7 whole entry): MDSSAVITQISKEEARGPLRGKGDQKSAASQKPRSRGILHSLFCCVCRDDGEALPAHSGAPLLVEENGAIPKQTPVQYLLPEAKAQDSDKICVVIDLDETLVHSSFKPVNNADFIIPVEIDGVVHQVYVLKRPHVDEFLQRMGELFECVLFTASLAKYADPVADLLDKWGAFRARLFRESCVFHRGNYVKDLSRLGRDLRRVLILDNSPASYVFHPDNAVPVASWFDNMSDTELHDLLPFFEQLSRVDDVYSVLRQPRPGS
# [7] = target: T6, Zinc finger protein mex-5 (Caenorhabditis elegans, UniProt Q9XUB2); assay: MEX-5/TCR-2 RNA interaction inhibitors, dose response, biochemical, C. elegans, fluorescence polarization (AID 1960)
# T6 sequence (Q9XUB2 whole entry): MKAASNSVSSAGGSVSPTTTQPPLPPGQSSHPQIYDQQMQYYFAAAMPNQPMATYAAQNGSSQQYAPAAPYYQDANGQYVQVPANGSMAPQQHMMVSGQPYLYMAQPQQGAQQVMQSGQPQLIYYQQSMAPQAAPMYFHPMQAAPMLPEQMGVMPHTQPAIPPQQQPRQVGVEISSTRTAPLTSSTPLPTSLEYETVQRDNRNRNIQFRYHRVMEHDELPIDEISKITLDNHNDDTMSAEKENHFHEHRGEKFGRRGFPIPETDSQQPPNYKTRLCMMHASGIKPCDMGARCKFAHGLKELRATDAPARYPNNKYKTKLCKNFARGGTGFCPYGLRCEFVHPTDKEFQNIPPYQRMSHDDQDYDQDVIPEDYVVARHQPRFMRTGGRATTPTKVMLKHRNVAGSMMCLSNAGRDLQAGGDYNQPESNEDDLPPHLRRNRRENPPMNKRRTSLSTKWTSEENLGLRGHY
# [8] = target: Luciferin 4-monooxygenase (Photinus pyralis, UniProt P08659); assay: firefly luciferase enzyme inhibitors, dose response, biochemical, luminescence (AID 1891)
# [9] = Luminescence Cell-Based Dose Confirmation HTS to Identify Inhibitors of Platelet Dense Granule Release. [Related pubchem assays: 1663 (Primary HTS), 1678 (Summary of Project)]; type: functional
# [10] = cells; type: functional, cell-based
# [11] = target: T7, Caspase-6 (Homo sapiens, UniProt P55212); assay: human caspase-6 inhibitors, dose response, biochemical, VEID-R110 fluorescence, cherry-pick (AID 720632)
# T7 sequence (P55212 whole entry): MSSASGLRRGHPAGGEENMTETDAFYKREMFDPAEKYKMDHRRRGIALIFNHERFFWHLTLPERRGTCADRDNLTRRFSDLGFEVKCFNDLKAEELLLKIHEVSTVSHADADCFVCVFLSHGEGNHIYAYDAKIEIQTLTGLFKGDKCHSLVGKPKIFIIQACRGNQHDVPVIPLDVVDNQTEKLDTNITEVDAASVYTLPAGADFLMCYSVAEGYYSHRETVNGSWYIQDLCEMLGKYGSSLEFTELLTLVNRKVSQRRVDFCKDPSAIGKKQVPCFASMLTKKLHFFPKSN
# [12] = cells; type: functional, cell-based; remark: listed apart in the source
# [13] = target: T8, DNA repair protein RAD52 homolog (Homo sapiens, UniProt P43351); type: functional, biochemical
# T8 sequence (P43351 whole entry): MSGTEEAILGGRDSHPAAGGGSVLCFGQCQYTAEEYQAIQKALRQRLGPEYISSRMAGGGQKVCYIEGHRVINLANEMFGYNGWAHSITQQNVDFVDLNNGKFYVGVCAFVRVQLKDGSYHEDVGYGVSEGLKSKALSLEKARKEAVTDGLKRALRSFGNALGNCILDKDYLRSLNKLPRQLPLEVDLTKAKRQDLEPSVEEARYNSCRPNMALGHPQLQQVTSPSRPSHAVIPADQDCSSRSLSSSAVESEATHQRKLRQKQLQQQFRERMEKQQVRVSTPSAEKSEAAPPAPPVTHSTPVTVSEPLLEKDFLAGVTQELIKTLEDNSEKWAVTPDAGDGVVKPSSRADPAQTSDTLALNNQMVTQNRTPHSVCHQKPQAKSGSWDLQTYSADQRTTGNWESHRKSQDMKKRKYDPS
# [14] = target: T9, Corticotropin-releasing factor receptor 2/Corticotropin-releasing factor-binding protein (Homo sapiens, UniProt P24387+Q13324); assay: Dose Response confirmation of uHTS hits for small molecule antagonists of the CRF-binding protein and CRF-R2 receptor complex.; type: functional; details: read-out: IC50_Mean
# T9 sequence (Q13324 whole entry): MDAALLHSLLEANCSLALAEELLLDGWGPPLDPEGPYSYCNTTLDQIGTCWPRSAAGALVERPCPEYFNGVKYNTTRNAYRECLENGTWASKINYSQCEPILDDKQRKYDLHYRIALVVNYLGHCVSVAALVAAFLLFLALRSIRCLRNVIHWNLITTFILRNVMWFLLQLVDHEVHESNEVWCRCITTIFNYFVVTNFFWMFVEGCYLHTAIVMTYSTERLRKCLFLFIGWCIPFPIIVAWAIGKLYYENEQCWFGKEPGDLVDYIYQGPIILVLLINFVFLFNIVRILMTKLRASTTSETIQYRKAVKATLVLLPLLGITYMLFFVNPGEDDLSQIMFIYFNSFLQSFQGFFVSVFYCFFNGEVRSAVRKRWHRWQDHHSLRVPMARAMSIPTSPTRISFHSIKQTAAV
# T9 sequence (P24387 whole entry): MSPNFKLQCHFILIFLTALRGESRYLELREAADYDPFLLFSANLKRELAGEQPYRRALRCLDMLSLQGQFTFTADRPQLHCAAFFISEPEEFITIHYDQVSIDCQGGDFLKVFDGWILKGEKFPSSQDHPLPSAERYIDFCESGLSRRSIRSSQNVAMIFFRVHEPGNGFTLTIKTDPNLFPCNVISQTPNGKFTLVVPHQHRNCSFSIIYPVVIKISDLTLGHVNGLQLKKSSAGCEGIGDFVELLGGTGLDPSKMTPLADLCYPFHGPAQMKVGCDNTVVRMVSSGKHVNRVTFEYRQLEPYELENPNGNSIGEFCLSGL
# [15] = system: H9c2; assay: cells; type: functional, cell-based; details: Rattus norvegicus, H9c2, Myocardium;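 also: confirmatory concentration-response retest of ultra-high-throughput screening hits for modulation of myocardial damage; cell death induced by hydrogen peroxide oxidative stress; compound pretreatment for 60 min then peroxide exposure for 2 h; potency is for protecting the cells against peroxide damage rather than for killing them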
# [16] = target: T9, Corticotropin-releasing factor receptor 2/Corticotropin-releasing factor-binding protein; assay: activators of CRF receptor 2 with binding protein – uHTS hits, confirmation (AID 602473); type: functional; details: read-out: EC50_Mean
# [17] = target: Cytochrome P450 2C9 (Homo sapiens, UniProt P11712)
# [18] = P. falciparum Dd2 growth inhibitors, dose response, SYBR Green, cherry-picked samples (AID 1159567); type: functional, cell-based
# T2 sequence (P49327 whole entry, the tested form may be a part): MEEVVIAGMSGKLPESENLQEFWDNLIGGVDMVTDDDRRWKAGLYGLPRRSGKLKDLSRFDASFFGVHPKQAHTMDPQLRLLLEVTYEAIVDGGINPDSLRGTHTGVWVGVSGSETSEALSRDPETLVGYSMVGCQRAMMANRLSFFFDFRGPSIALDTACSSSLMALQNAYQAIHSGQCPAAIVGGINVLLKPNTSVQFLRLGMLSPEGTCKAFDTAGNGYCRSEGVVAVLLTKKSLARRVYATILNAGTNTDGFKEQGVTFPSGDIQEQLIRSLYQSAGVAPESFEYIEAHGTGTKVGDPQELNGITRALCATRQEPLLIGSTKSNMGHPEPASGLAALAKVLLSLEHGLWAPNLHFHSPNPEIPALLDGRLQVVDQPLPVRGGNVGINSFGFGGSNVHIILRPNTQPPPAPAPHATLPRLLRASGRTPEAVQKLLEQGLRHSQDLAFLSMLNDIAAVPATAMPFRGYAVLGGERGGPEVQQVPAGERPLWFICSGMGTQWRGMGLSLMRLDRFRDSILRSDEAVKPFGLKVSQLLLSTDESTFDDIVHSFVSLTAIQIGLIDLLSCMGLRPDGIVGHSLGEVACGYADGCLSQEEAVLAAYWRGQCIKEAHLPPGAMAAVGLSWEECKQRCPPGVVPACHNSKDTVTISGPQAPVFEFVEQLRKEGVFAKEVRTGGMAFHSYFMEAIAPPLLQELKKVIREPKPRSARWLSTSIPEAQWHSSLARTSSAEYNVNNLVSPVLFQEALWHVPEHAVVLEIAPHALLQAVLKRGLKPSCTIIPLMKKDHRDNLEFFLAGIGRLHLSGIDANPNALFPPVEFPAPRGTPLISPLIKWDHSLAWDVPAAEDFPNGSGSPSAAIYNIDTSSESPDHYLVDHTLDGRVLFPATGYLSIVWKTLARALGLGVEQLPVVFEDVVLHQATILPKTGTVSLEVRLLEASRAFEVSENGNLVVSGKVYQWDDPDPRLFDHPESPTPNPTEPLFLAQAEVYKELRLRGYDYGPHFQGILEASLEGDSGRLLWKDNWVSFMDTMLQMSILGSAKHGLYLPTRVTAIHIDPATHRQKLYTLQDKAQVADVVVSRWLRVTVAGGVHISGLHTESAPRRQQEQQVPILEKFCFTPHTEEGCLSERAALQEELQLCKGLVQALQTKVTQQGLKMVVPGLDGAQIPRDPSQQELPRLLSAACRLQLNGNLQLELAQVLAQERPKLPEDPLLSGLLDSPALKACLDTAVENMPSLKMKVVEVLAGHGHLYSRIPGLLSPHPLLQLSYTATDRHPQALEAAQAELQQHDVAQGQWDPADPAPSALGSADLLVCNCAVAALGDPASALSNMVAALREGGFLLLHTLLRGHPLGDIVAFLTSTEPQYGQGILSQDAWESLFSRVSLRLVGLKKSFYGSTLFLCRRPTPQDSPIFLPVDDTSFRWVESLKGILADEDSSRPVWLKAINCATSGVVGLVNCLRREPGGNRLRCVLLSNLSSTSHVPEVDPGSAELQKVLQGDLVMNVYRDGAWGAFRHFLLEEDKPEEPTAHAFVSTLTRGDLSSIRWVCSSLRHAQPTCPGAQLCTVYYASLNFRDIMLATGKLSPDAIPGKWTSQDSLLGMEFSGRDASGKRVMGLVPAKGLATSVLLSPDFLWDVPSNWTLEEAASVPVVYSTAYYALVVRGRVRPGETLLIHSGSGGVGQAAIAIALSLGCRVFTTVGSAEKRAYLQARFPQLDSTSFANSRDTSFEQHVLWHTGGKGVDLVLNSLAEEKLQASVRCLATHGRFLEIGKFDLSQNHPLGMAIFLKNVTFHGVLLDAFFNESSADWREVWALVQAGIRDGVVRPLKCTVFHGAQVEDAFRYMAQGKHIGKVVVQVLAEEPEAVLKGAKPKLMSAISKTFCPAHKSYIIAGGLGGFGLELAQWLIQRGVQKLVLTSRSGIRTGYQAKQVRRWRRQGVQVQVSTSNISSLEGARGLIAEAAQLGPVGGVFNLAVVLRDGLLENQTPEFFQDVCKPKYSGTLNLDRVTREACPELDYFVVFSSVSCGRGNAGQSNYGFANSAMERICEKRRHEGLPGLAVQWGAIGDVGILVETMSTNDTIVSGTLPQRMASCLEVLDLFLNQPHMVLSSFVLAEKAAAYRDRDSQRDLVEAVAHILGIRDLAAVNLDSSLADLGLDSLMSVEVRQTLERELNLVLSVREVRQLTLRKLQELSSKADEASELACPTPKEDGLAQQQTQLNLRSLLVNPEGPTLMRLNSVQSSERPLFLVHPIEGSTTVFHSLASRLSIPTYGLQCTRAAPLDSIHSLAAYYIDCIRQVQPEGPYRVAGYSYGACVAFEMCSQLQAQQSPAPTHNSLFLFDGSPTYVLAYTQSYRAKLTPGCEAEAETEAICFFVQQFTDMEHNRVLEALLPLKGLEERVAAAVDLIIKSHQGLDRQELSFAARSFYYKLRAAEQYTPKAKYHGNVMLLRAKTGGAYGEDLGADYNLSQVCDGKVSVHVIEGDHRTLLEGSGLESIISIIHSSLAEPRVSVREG
# Luciferin 4-monooxygenase, sequence (P08659 whole entry): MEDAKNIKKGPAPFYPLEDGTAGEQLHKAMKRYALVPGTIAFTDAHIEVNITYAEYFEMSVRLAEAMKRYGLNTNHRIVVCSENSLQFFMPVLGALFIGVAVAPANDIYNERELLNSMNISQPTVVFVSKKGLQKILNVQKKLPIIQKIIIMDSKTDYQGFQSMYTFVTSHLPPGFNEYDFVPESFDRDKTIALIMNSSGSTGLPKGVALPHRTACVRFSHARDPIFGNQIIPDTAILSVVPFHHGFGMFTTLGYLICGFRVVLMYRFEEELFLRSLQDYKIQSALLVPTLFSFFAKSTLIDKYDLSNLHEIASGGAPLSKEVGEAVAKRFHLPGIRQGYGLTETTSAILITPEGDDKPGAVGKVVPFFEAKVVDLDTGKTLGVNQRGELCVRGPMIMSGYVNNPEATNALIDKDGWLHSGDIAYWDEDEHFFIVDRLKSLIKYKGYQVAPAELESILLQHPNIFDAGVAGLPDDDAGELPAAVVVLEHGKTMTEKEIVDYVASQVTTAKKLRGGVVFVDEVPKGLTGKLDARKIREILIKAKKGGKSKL
# Cytochrome P450 2C9, sequence (P11712 whole entry): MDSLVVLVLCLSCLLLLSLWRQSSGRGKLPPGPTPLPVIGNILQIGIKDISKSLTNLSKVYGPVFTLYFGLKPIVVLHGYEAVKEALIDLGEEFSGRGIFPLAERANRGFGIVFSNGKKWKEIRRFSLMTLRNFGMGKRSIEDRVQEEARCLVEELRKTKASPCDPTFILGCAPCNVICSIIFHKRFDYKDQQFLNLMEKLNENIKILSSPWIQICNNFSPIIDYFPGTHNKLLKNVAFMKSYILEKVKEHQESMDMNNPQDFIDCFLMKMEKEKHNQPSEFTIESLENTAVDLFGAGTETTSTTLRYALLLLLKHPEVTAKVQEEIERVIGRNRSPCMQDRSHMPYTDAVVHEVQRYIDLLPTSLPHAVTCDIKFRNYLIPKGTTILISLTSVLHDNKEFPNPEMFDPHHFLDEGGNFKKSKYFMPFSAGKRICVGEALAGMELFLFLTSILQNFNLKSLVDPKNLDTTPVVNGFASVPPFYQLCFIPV
compound,measurement,setting,value
CCOC(=O)CCCSc1nnc(CCCCCN2C(=O)c3cccc4cccc(c34)C2=O)o1,IC50,[1],> 20 µM (inactive)
O=C1CC(c2cccc([N+](=O)[O-])c2)c2cc3c(cc2N1)CCC3 (centres undefined),IC50,[2],10.9 µM (active)
same,IC50,[3],15.9 µM (active)
CCN(C(=S)Nc1cccnc1)c1cccc2ccccc12,IC50,[4],> 50 µM (not active)
Cc1cc(/C=C2\C(=O)NC(=O)N(c3ccc(Cl)cc3)C2=O)c(C)n1-c1cccc(C(=O)O)c1,EC50,[5],> 300 µM (not active)
same,IC50,[6],9.6 µM (active)
same,EC50,[7],65.9 µM (active)
O=C(COC(=O)c1cccnc1Cl)NCc1ccco1,IC50,[6],12.4 µM (active)
COCCN1C(=O)c2oc3ccccc3c(=O)c2C1c1ccc(OC)c(OC)c1 (centres undefined),IC50,[6],5.26 µM (active)
Cc1cc(C)cc(NC(=O)c2cc(S(=O)(=O)N3CCCC3)cn2C)c1,EC50,[8],> 112 µM (not active)
same,EC50,[9],> 112 µM (not active)
COC(=O)c1cc(C(=O)OCC(=O)NC2CCCC2)cc([N+](=O)[O-])c1,IC50,[2],8.82 µM (active)
same,IC50,[3],9.42 µM (active)
Cc1ccc(S(=O)(=O)NC2=NC(=O)/C(=C/c3cc([N+](=O)[O-])ccc3O)S2)cc1,EC50,[10],> 350 µM (not active)
same,AC50,[11],10.7 µM (active)
same,EC50,[12],53.1 µM (active)
Cc1nc2cc(NC(=O)Nc3ccccc3Cl)ccc2n1C,EC50,[8],5.05 µM (active)
same,EC50,[9],5.86 µM (active)
CSc1ccc2c(c1)C(N1CCN(C)CC1)Cc1ccccc1S2 (centres undefined) [METHIOTHEPIN MESYLATE],AC50,[13],18.7 µM (active)
same,IC50,[1],> 20 µM (inactive)
Oc1ccc(/C=N/N(Cc2ccccc2)c2ccccc2)c(O)c1O,IC50,[4],> 50 µM (not active)
O=C/C(=C\Nc1ccccn1)c1nc2cc(Cl)ccc2o1,EC50,[5],67.7 µM (active)
same,IC50,[14],> 47.1 µM (inactive)
same,EC50,[7],36.4 µM (active)
same,IC50,[15],> 79 µM (inactive)
same,EC50,[16],> 53 µM (inactive)
COc1ccc(-c2cc3ccccc3oc2=O)cc1NC(=S)NC(=O)c1ccc2c(c1)OCCO2,IC50,[1],> 20 µM (inactive)
CCC(=O)/N=c1\sc2cc(F)cc(F)c2n1C,EC50,[8],> 112 µM (not active)
same,EC50,[9],> 112 µM (not active)
O=C(Nc1cccc([N+](=O)[O-])c1)N1CCc2ccccc2C1,IC50,[2],8.71 µM (active)
same,IC50,[3],6.26 µM (active)
C[N+]1(CCOc2ccc([N+](=O)[O-])cc2)CCOCC1.[I-],IC50,[6],4.86 µM (active)
same,AC50,[17],inconclusive
Cc1cc(Cl)ccc1NC(=O)COC(=O)c1cc([N+](=O)[O-])ccc1N1CCOCC1,IC50,[2],2.55 µM (active)
same,IC50,[3],2.13 µM (active)
Cc1c(C(=O)O)c(C(=O)O)nc2ccc(N3CCOCC3)cc12,IC50,[4],> 50 µM (not active)
CCC1(c2ccccc2)NC(=O)N(CC(=O)Nc2cc(Cl)ccc2N2CCN(C)CC2)C1=O (centres undefined),IC50,[1],> 20 µM (inactive)
CN1CCN(/C=C2\SC(=S)NC2=O)CC1,EC50,[8],> 112 µM (not active)
same,EC50,[9],> 112 µM (not active)
CC(C)n1c(NCc2cc(Cl)ccc2O)nc2ccccc21,IC50,[1],> 20 µM (inactive)
O=C(C[C@H]1C[C@@H]2c3cc(NC(=O)Nc4ccccc4)ccc3O[C@@H]2[C@H](CO)O1)NCc1ccccc1,AC50,[18],12.4 µM (active)
Fc1ccccc1Nc1nc2c(s1)CCc1ccccc1-2,IC50,[4],> 50 µM (not active)
O=C(Cc1ccc(-n2c(=O)c3ccccc3n(Cc3ccc(F)cc3)c2=O)cc1)NCC1CCCO1 (centres undefined),EC50,[8],> 112 µM (not active)
same,EC50,[9],> 112 µM (not active)
